Assay results from paper PMC9963675 (Proceedings of the National Academy of Sciences of the …, 2023).

Assays:
WT C57Bl6/N mice = assay: open field locomotor activity time-course in mice; format: in vivo; settings: for duration of locomotor / psychomotor effects: open field time-course, i.p.; for potency, cumulative distance traveled over 60 min post i.p. injection: compared with MPH, cocaine, R-αPVP, R-MDPV and R-pyrovalerone
DAT [1] = molecular target: T1, DAT (Homo sapiens, UniProt Q01959); assay: saturation of [3H]DA uptake in presence of inhibitor; format: cell-based; settings: 1 min uptake; cocaine and R-αPVP 250, 500, 1,000 nM; S-αPVP 5, 10, 20 nM
DAT [2] = molecular target: T1, DAT; format: binding; settings: DAT membranes
DAT [3] = molecular target: T1, DAT; assay: electrophysiological examination of DAT-mediated currents; format: cell-based; settings: HEK293 cells expressing DAT, whole-cell

T1 sequence (Q01959 whole entry): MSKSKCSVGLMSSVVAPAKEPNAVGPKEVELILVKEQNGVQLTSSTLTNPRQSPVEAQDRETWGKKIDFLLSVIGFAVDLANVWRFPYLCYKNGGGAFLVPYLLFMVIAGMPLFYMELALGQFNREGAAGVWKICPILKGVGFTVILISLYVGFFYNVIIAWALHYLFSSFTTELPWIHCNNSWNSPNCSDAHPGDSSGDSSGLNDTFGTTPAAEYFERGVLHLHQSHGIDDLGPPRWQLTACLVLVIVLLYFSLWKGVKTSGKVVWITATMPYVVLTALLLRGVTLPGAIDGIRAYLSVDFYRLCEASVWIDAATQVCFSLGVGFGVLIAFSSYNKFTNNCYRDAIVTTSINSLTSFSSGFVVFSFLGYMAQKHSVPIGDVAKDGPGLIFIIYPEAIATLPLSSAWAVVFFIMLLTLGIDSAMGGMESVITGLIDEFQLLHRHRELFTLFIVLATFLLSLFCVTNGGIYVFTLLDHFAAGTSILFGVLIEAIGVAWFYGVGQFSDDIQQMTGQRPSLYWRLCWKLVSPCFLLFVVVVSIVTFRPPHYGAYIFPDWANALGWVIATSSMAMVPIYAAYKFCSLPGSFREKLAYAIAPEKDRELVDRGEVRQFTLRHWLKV

Row | Compound | duration of locomotor / psychomotor effects (WT C57Bl6/N mice) | other results
1 | CCCC(C(=O)c1ccc2c(c1)OCO2)N1CCCC1 (stereo not drawn) [R-MDPV, 3,4-methylenedioxypyrovalerone] | much shorter duration of locomotor effects | –
2 | COC(=O)[C@H]1[C@@H](OC(=O)c2ccccc2)C[C@@H]2CC[C@H]1N2C [cocaine] | much shorter duration of locomotor effects | effect on Km of DA uptake (DAT [1]): increases Km in dose-dependent manner; effect on Vmax of DA uptake (DAT [1]): does not decrease Vmax; effect on dissociation rate of [3H]WIN35428 (DAT [2]): not affected
3 | COC(=O)C(c1ccccc1)C1CCCCN1 (stereo not drawn) [MPH, methylphenidate] | much shorter duration of locomotor effects | –
4 | CCC[C@@H](C(=O)c1ccc(C)cc1)N1CCCC1 [S-pyrovalerone, pyrovalerone] | prolonged psychomotor effects | potency, cumulative distance traveled over 60 min post i.p. injection (WT C57Bl6/N mice): at least tenfold more potent
5 | NCCc1ccc(O)c(O)c1 [dopamine] | – | DAT-mediated inward currents (substrate activity) (DAT [3]): robust inward currents
6 | CCCC(C(=O)c1ccc2c(c1)OCO2)N1CCCC1 (stereo not drawn) [S-MDPV, 3,4-methylenedioxypyrovalerone] | prolonged psychomotor effects | potency, cumulative distance traveled over 60 min post i.p. injection (WT C57Bl6/N mice): at least tenfold more potent
7 | CCC[C@H](C(=O)c1ccc(C)cc1)N1CCCC1 [R-pyrovalerone, pyrovalerone] | much shorter duration of locomotor effects | –
